Test: clinical
Settings: male, human, plasma, po
Description: Sixteen male volunteers, aged 22 to 55 years, received oral Compound (I) (2 mg Q 12 h), M (500 mg Q12 h), or the combination, each for 4 days.

Compound	Tmax	half-life
CN(CCOc1ccc(CC2SC(=O)NC2=O)cc1)c1ccccn1 (stereo not drawn) [Compound (I), 5-[4-[2-(N-methyl-N-(2-pyridyl)amino)ethoxy]benzyl]thiazolidine-2,4-dione]	3 h	194 min
CN(C)C(=N)N=C(N)N [M, 1,1-Dimethylbiguanidine, reference compound]	3 h	–
